Results taken from US12691087B2, “Method of enhancing glucose levels in the central nervous system” (THE INSTITUTE FOR ETHNOMEDICINE, priority 2018, dated 2026).

Assays:
[1] = Glucose in cerebral spinal fluid of vervets fed L-serine; type: in vivo, vervets (Chlorocebus pygerythrus)
Protocol: […]. These were compared to four control vervets who were fed daily control doses of 651 mg/day of rice powder for 42 days.
Cerebral spinal fluid samples were taken during the experiment. The cerebral spinal fluid samples from vervets fed L-serine were compared to cerebral spinal fluid samples from control vervets at 42 days.
Frozen cerebral spinal fluid (CSF) was prepared using equal volumes of CSF and 20% w/v TCA. The combined volume was sonicated (Fisher Scientific Sonic Dismembrator, Model 100) on ice at 2 watts (10 s×3) and left to precipitate at room temperature for 30 minutes. The sample was then centrifuged (Labnet Spectrafuge 16M) at 14,000 g for 5 min. […]
CSF extracts were analyzed on a TSQ Quantiva (Thermo Scientific) triple quadrupole mass spectrometer with an Ultra High Pressure Liquid Chromatography (Waters Acquity-UHPLC) system equipped with a Binary Solvent Manager, Sample Manager, and an Acquity UPLC BEH Amide column (#186004801, 100×2.1 mm, 1.7 μm) at 50° C. […]
The mass spectrometer was operated with a heated electrospray ionization (H-ESI) probe and sheath gas pressure set to 40 (Arb), aux gas set to 2 (Arb), and sweep gas set to 1 (Arb). Samples were analyzed in negative ion mode with a vaporizer temperature of 350° C., capillary temperature of 130° C., and spray voltage 2800v. […]

[2] = Randomized, placebo-controlled double-blinded study of cognitive ability in healthy post-menopausal women (Rey Auditory Verbal Learning Test); type: in vivo, human; conditions: 15 g/day for 60 days
Description: This Example describes a nutritional experiment conducted on post-menopausal women. The study was designed to determine if dietary supplementation with L-[…] grams/day) improves cognitive ability in healthy women when administered over a 60-day period. Forty-eight women ages 55 years, who had not been diagnosed with mild cognitive impairment, probable dementia, or Alzheimer's disease participated as volunteers in this randomized, placebo-controlled double-blinded study. Forty-three women completed the study. Cognitive abilities of each participant were assessed in several different cognitive domains by using the NIH toolbox (Gershon et al, 2013) on an I-Pad, founded on earlier test procedures developed by Atkinson and […] (1968). Cognitive tests included the Rey Auditory Verbal Learning Test which broadly assesses short-term auditory and verbal learning (King et al. 1998). For example, in one test participants were presented 15 unrelated words and asked to repeat them again after 30 minutes. The cognitive assessment was administered to participants at the beginning and the end of the sixty-day study period. The assessment procedure lasted 45 minutes for each individual. L-serine gummies, each at 2.2 grams total weight, and each containing 1.0 grams of L-serine were manufactured in a cGMP FDA-compliant facility by […]). Placebo gummies were manufactured in a similar manner. […] The gummies were placed in sealed foil packets, each packet containing 15 gummies. Microbiological analysis indicated the gummies to be free of bacterial contamination. The materials used for packaging were manufactured by ESP Packaging LLC (Costa Mesa, CA). Each individual foil packet was labeled with a lot number containing the Julian code date. […] The differences between the beginning and end score for each participant in the L-serine treatment and placebo treatment groups were evaluated using a Wilcoxon-Mann-Whitney test with p<0.05 as the significance level. […]

[3] = tested on: human neuroblastoma cells (SH-SY5Y); assay: Glucose synthesis by SH-SY5Y cells given L-serine (Amplex Red Glucose Assay, culture medium); type: cell-based; conditions: 100, 200 and 500 mM L-serine; 0, 24 and 48 hrs; medium deficient in glucose
Protocol: Cell Culture: SH-SY5Y human neuroblastoma (PD19, […]) were cultured in 150 cm^2 flasks in Dulbecco's Modified Eagle's Medium/Nutrient F-12 Ham (Sigma-Aldrich, Cat. No. D8437) containing 10% fetal bovine serum (FBS), 4 mM L-glutamine, 100 U/mL penicillin, and 100 μg/mL streptomycin at 37° C. (Complete Medium) in a humidified atmosphere of 5% CO2 and 95% air. At between 70 and 90% confluence, the cells were trypsinized with 0.5% Trypsin-EDTA (Thermo Fisher, Cat. No. 15400054) and then 2.5×10^5 cells/well plated in twenty-four-well plates and allowed to adhere overnight (PD22). The following day, the cell culture medium was aspirated, and the cells were washed three times in warm […] Hanks buffered salt solution (HBSS). […] Glucose concentrations were measured using the Amplex® Red Glucose/Glucose Oxidase Assay Kit (Invitrogen). […] Fluorescence was read at excitation 540 nm and emission […] in SoftMax Pro version 7.0.2 on a Molecular Devices Flexstation 3. Glucose concentrations in the samples were calculated from the standard curve. […] Human neuroblastoma cells were incubated in medium deficient in glucose and L-serine, but supplemented with increasing concentrations of L-[…], 200 and 500 mM) for 0, 24 and 48 hrs, then glucose concentrations in the culture medium measured using the Amplex® Red Glucose Assay (Invitrogen).

[4] = Storage stability of L-serine; type: physicochemical; conditions: 24 month storage, room temperature (<30° C.), relative humidity <75%
[5] = Case study of a person with GLUT1 deficiency; type: in vivo, human; conditions: 30 grams per day oral, single patient
Description: Evidence for the efficacy of L-serine therapy for glucose deficiency syndrome is supported by a case-study of a person (“the patient”) who suffered ataxia, developmental impairment, reduced social interaction, and fine motor skill deficits as a result of their GLUT1 deficiency. In subjects suffering from glucose deficiency syndrome, there is insufficient glucose transported across the brain to allow proper functioning of brain cells. Since L-serine is transported through a different mechanism across the blood brain barrier, it is possible to increase intracranial glucose concentrations through administration of high doses of L-serine. The patient was administered 30 grams of L-serine per day by oral administration.

[6] = up to 30 g/day over a six-month period; 20 ALS patients; cited from earlier work

In the case of `N[C@@H](CO)C(=O)O` [L-serine], the “increase of glucose levels versus control vervets” value ([1]; 651 mg/day oral for 42 days, significant at p<0.005) is reported as “great than doubling”, the “median level of glucose in CSF” value ([1]; vervets fed 651 mg/day L-serine for 42 days, CSF at 42 days, control 24 mg/100 ml, p<0.005) is reported as 58 mg/100 ml and the delayed list recall ([2]; did not achieve statistical significance) is reported as “trend towards improvement”. The “mean improvement on the Rey Auditory Verbal Learning Test” value ([2]; final minus beginning score, placebo 4.0) was 7.9, the “improvement in learning ability (Rey Auditory Verbal Learning Test) compared to the placebo group” value ([2]; p<0.01) was 98% and the “glucose concentration in the culture medium compared to Control (0 mM L-serine)” value [3] was “No significant increase”. For the same molecule, the “changes in optical rotation or purity on storage” value [4] was “No significant changes”, the stability on storage [4] was “extraordinarily stable” and the “fine motor skills, including handwriting” value [5] was “improved fine motor skills”. The social interaction [5] was “improved social interaction”, the “patient's condition (ability to ride a bicycle and carry cargo)” value ([5]; within several weeks) was “rapid improvement” and the safety [6] was “safe”.
